The subject of this experiment is CHO cells. Briefly: Voltage dependent quenching of WGA-F1 fluorescence in response to changes in the potassium diffusion potential. The format is cell-based, Chinese hamster. Conditions: excitation 475 nm. Here is the method:
Crystal violet was purchased from Fischer Scientific. Fluorescein labeled wheat germ agglutinin (WGA-F1) was purchased from Sigma Chemical. Valinomycin was purchased from Sigma Chemical Chinese hamster ovary cells (CHO) were grown in Ham's F12 media (Irvine Scientific) with 10% fetal bovine serum and 1% penicillin/streptomycin. Adherent cells were harvested using phosphate buffered saline with 0.5 mM EDTA (Irvine Scientific). Cells were washed in Hank's buffered saline solution (HBSS) containing 20 mM Hepes at pH 7.2. Cells suspended in HBSS at a concentration of 10^6 cells/ml were stained with 2 μg/ml WGA-F1 and 40 nM crystal violet for 15 minutes at room temperature. The cells were washed with HBSS and suspended in HBSS containing 1 μM sulforhodamine 101 (Sigma Chemical). Sulforhodamine 101 was used as a voltage insensitive volume marker to account for possible dilution artifacts. […] Fluorescence measurements on cell suspensions were made at room temperature using a FluoroMax-2 fluorometer (Spex). […]
The cationic quencher will redistribute from the intracellular side of the plasma membrane to the extracellular side as the cell is depolarized. […] The fluorescein fluorescence in the depolarized cells is decreased by 20% compared to the hyperpolarized cells. No difference is seen in sulforhodamine 101 fluorescence.
Octadecyl rhodamine B (R18) was purchased from Molecular Probes. […] Fluorescence measurements on cell suspensions were made at room temperature using a FluoroMax-2 fluorometer (Spex). […]
The cationic quencher redistributes from the intracellular side of the plasma membrane to the extracellular side as the cell is depolarized. […] The fluorescein fluorescence in the depolarized cells is decreased by 3% and the rhodamine fluorescence is increased by 2% compared to the hyperpolarized cells. The observed changes in fluorescein and R18 fluorescence are consistent with the translocation-dependent changes in fluorescence resonance energy transfer.

Where [1] appears, read: CHO cells stained with 2 μg/ml WGA-F1 and 500 nM R18, high potassium vs high sodium buffer, valinomycin.

In the case of `CN(C)c1ccc(C(=C2C=CC(=[N+](C)C)C=C2)c2ccc(N(C)C)cc2)cc1` [crystal violet], for the setting “CHO cells stained with 2 μg/ml WGA-F1 and 40 nM crystal violet, high potassium buffer (126 mM K+) vs high sodium buffer (6 mM K+), 5 μM valinomycin”, the “decrease of fluorescein fluorescence in the depolarized cells compared to the hyperpolarized cells” value came out at 20%.

On to `CCCCCCCCCCCCCCCCCCOC(=O)c1ccccc1-c1c2ccc(=[N+](CC)CC)cc-2oc2cc(N(CC)CC)ccc12.[Cl-]` [R18, Octadecyl rhodamine B], for which, under setting [1], the “decrease of fluorescein fluorescence in the depolarized cells compared to the hyperpolarized cells” value was found to be 3% and the “increase of rhodamine fluorescence (sensitized emission) in the depolarized cells compared to the hyperpolarized cells” value was determined as 2%.

These data come from US6468763B1, “Optical detection of transmembrane potential changes” (Caliper Technologies Corp., priority 1999, dated 2002).
